{"source": "paper PMC3605511", "about": "“Tumor P-Glycoprotein Correlates with Efficacy of PF-3758309 in in vitro and in vivo Models of Colorectal Cancer” (Frontiers in Pharmacology, 2013)", "key": {"[1]": {"assay": "MDCKII-LE permeability assay", "assay_type": "in vitro ADME", "settings": "dog, MDCK; MDCKII-LE cells, mean of two replicates", "method": "(§1) Permeability and transporter substrate assays were performed as previously published (Feng et al., [2008]; Callegari et al., [2011]; Di et al., [2011]). Permeability assays were conducted in MDCKII-LE cells, which were generated by isolation of a subpopulation of cells with low expression of endogenous P-gp (Feng et al., [2008]; Callegari et al., [2011]; Di et al., [2011]). The use of MDCKII-LE cells are used to measure the passive permeability of compounds in place of MDCK wild-type or Caco-2 cells since both MDCK wild-type and Caco-2 cells are known to have some level of endogenous transporter expression which can affect the permeability measurement. P-gp efflux was determined in MDR1-MDCK cells and BCRP efflux was measured in BCRP-MDCKII-LE cells.\n(§2) MDCKII-LE, MDR1-MDCK, and BCRP-MDCKII-LE transwell assays were performed to determine the permeability and transporter efflux of PF-309 in vitro (Table 1). The permeability of PF-309 was determined to be 0.9 × 10^−6 cm/s in MDCKII-LE cells (mean of two replicates is presented). As previously described (Feng et al., [2008]), in MDCKII-LE cells a compound with a donor to receiver (A → B) flux of <5 × 10^−6 cm/s is classified as having low permeability. Compounds with A → B flux of 5–15 × 10^−6 cm/s are classified as moderately permeable and compounds >15 × 10^−6cm/s are considered to be highly permeable."}, "MDCKII-LE cells": {"test_system": "MDCKII-LE cells", "assay": "MDCKII-LE permeability assay", "assay_type": "in vitro ADME", "settings": "MDCKII-LE; A → B <5 × 10^−6 cm/s low, 5–15 moderate, >15 high", "method": "as §1, §2"}, "SW837": {"test_system": "SW837", "assay": "Cell proliferation assay, SW837", "assay_type": "cell-based", "settings": "Homo sapiens; SW837, 72 h, SRB assay", "method": "(§3) Cytotoxic/proliferation effects were determined using the sulforhodamine B (SRB) assay (Skehan et al., [1990]) or by resazurin. Briefly, cells in logarithmic growth phase were transferred to 96 well flat bottom plates with lids. One-hundred microliter cell suspensions containing 1500–5000 viable cells were plated into each well and incubated overnight prior to exposure with increasing concentrations of PF-309 for 3–5 days, dependent upon cell type. Media was removed and cells were fixed with cold 10% trichloroacetic acid for 30 min at 4°C. Cells were then washed with water and stained with 0.4% SRB (Fisher Sci., Pittsburgh, PA, USA) for 30 min at room temperature, washed again with 1% acetic acid, followed by stain solubilization with 10 mM tris at room temperature. The plate was then read on a plate reader (Biotek Synergy 2, Winooski, VT, USA) set at an absorbance wavelength of 565 nm. Cell proliferation curves were derived from the raw absorbance (OD) data.\n(§4) Since PF-309 appeared to be a strong P-gp and BCRP substrates, we sought to evaluate if the transporters influenced sensitivity in vitro. We evaluated the sensitivity of CRC cell lines to PF-309 treatment in a panel of 27 lines. Cells were exposed to PF-309 at a range of concentrations for 72 h and cell content measured by SRB assay (see Pitts et al., [2013]). […]"}, "HT29": {"test_system": "HT29", "assay": "Cell proliferation assay, HT29", "assay_type": "cell-based", "settings": "Homo sapiens, HT-29; HT29, 72 h, SRB assay", "method": "as §3, §4"}, "SW480": {"test_system": "SW480", "assay": "Cell proliferation assay, SW480", "assay_type": "cell-based", "settings": "Homo sapiens; SW480, 72 h, SRB assay", "method": "as §3, §4"}, "DLD1 PgP_KD2": {"test_system": "DLD1 PgP_KD2", "assay": "Proliferation after shRNA knockdown of P-gp, DLD1 PgP_KD2", "assay_type": "cell-based", "settings": "Homo sapiens, DLD-1; DLD1 PgP_KD2 :50, P-gp shRNA knockdown", "method": "as §3\nThe pGIPZ Pgp-specific shRNA expression cassettes, along with control shRNA plasmids including the original pGIPZ vector were purchased from Open Biosystems (Birmingham, AL, USA). […] Successful knockdown of specific genes and gene products was confirmed by semi-quantitative RT-PCR and immunoblotting with specific antibodies. […]"}, "CUCRC042 CRC PDTX model": {"test_system": "CUCRC042 CRC PDTX model", "assay": "Patient derived tumor xenograft efficacy, CUCRC042", "assay_type": "in vivo, mice", "settings": "25 mg/kg orally twice daily, 22–56 days, end of study tumor volumes", "method": "(§5) For patient tumor xenografts, surgical specimens of patients undergoing either removal of a primary or metastatic tumor at the University of Colorado Hospital are implanted subcutaneously into five mice for each patient with a 10-G trochar. After a subsequent growth and passage in mice, tumors are excised, and expanded into cohorts for treatment (n = 6–15 per group). Mice were treated with PF-309 or vehicle (0.5% methylcellulose) for 22–56 days (until control tumor volume reach ∼1500 mm^3) twice daily (BID) by oral gavage (PO). Monitoring of mice and measurements of tumors were conducted as described above. % Growth Inhibition= (average control volume−average treated volume)/average control volume×100% In addition to the cell line xenografts, we also treated 12 different patient derived tumor xenograft (PDTX) CRC models with PF-309 (Figure 6). We were unable to assess how ABCB1 gene expression correlated with efficacy in these models. The PDTX models are propagated in vivo, are not immortalized, and are not grown in in vitro culture. […] Tumor and plasma sample pairs were collected from animals at the end of study for eight tumor models (three cell line xenografts and five PDTX models) and concentrations of PF-309 were measured. […]"}, "CUCRC006 CRC PDTX model": {"test_system": "CUCRC006 CRC PDTX model", "assay": "Patient derived tumor xenograft efficacy, CUCRC006", "assay_type": "in vivo, mice", "settings": "25 mg/kg orally twice daily, 22–56 days, end of study tumor volumes", "method": "as §5"}, "CUCRC026 CRC PDTX model": {"test_system": "CUCRC026 CRC PDTX model", "assay": "Patient derived tumor xenograft efficacy, CUCRC026", "assay_type": "in vivo, mice", "settings": "25 mg/kg orally twice daily, 22–56 days, end of study tumor volumes", "method": "as §5"}}, "data": [{"molecule": "Cc1nc(Nc2n[nH]c3c2CN(C(=O)N[C@H](CN(C)C)c2ccccc2)C3(C)C)c2sccc2n1", "note": "[PF-309]", "values": [{"measurement": "Papp A→B", "setting": "[1]", "value": 0.9, "unit": "×10⁻⁶ cm/s"}, {"measurement": "permeability classification", "setting": "MDCKII-LE cells", "value": "poorly permeable"}, {"measurement": "IC50", "setting": "SW837", "value": "> 1", "unit": "µM"}, {"measurement": "IC50", "setting": "HT29", "value": "> 1", "unit": "µM"}, {"measurement": "IC50", "setting": "SW480", "value": "0.0101 ± 0.0025", "unit": "µM"}, {"measurement": "IC50", "setting": "DLD1 PgP_KD2", "value": 0.018, "unit": "µM"}, {"measurement": "% Growth inhibition", "setting": "CUCRC042 CRC PDTX model", "value": 52, "unit": "%"}, {"measurement": "% Growth inhibition", "setting": "CUCRC006 CRC PDTX model", "value": 32, "unit": "%"}, {"measurement": "% Growth inhibition", "setting": "CUCRC026 CRC PDTX model", "value": 30, "unit": "%"}]}]}
